≈ marks a conversion by molar mass, not a printed value.

For one data set, the target named is T1, gelatinase B (MMP-9) (Homo sapiens, UniProt P14780).
T1 construct: purchased Amersham Pharmacia
As to the kind of experiment: Gelatinase B inhibitory activity (MMP-9 Activity ELISA). Format: biochemical. The text has this:
Neutrophils contain two major enzymes from the class of matrix metalloproteinases, which collectively are implicated in extensive connective tissue destruction: neutrophil collagenase (MMP-8) and gelatinase B (MMP-9). Because elastase has poor activity against native collagen, and neutrophil collagenase alone cannot solubilize the connective tissue protein by itself, gelatinase B is considered as a major contributor to inflammatory injury to the extracellular matrix. A specific assay for this enzyme was used to evaluate the potential of cosmetic botanical ingredients to inhibit degradation of the extracellular matrix mediated by inflammatory cell-derived matrix metalloproteinases. Gelatinase B activity was detected by hydrolysis of a low molecular weight synthetic substrate (APMA). Inhibitors of gelatinase B diminish the accelerating rate of enzyme reaction product formation in a dose-dependent fashion. Such enzyme inhibition was found when tested cosmetic ingredients were added to the reaction mixture. Method 6: Method for Determination of Gelatinase B Inhibitory Activity. […] The enzymatic activity was detected at 405 nm by hydrolysis of a low molecular weight synthetic substrate for Gelatinase B: APMA. […]
On the technique in general: An ELISA detects its analyte on a solid surface through an enzyme-linked reagent.

A short description of data set [1]: Superoxide scavenging activity (xanthine oxidase system, cytochrome c reduction). Format: biochemical. The text has this:
Reactive oxygen species generated by activated inflammatory cells (endogenous or exogenous) create specific oxidant which was used to provide the measurements of superoxide scavenging activity. The assay used for evaluation of superoxide scavenging activity relates to the one form of antioxidant activity, which is of benefit in neutralizing the damage associated with oxidation. To generate superoxide anions in high yield and in a controlled fashion, an enzymatic system (xanthine oxidase) was used. The conversion of […] by this enzyme generates amounts of superoxide anions, which are stoichiometric with the amount of substrate provided. The assay used was based on the reduction of cytochrome c from its ferric to ferrous form as a sensitive measure of superoxide levels. […] Method 7: Method for Determination of Superoxide Scavenging Activity. The enzymatic system, which uses xanthine oxidase (a purified enzyme preparation produced by “Sigma”), was used to generate superoxide anions in high yield and in a controlled fashion. The conversion of xanthine to hydroxanthine by this enzyme generates amounts of superoxide anions and reduction of ferricytochrome c to ferrocytochrome c was used as a sensitive measure of superoxide levels. […]

The subject of another data set is 3T3 fibroblasts. As to the kind of experiment: Neutral red uptake (NRU) cytotoxicity test. It counts as cell-based. Set-up: key to Cell Morphology: NCM: Normal Cell Morphology; MLT: Moderate Level of Toxicity. The text has this: As an example, a test involving neutral red uptake (NRU) by 3T3 fibroblasts, which is commonly used for determination of cytotoxicity, was utilized to assess cytotoxicity of cosmetic botanical ingredients. The NRU value is proportional to the number of viable cells in this in vitro test population.

T1 sequence (P14780 94-707): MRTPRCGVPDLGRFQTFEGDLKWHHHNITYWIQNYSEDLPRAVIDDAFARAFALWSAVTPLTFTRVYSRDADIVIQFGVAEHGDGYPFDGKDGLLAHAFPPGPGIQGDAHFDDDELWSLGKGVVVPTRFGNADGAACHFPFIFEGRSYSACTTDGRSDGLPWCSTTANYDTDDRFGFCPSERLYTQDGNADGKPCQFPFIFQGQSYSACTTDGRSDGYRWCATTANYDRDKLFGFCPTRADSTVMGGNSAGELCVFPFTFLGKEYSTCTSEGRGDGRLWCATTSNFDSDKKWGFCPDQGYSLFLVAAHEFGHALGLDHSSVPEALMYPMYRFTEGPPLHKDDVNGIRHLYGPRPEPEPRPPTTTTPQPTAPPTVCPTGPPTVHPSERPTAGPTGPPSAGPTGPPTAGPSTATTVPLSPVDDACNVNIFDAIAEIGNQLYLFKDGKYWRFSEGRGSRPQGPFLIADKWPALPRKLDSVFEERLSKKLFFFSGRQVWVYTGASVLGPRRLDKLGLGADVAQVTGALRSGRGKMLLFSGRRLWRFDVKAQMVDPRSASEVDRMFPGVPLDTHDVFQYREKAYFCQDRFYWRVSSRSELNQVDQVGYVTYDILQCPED

As a reminder, the IC50 is the concentration that inhibits the measured activity by half. On to `O=C(/C=C/c1ccc(O)c(O)c1)O[C@H](Cc1ccc(O)c(O)c1)C(=O)O` [Rosmarinic Acid, rosmarinic acid], for which it took 83.3 µM to reach half-maximal inhibition against gelatinase B (MMP-9) (IC50). At gelatinase B (MMP-9) (read-out: % Inhibition [100 μg/ml]), the inhibition at 100 µg/mL amounted to 91%. The compound also showed an ICR50 in data set [1] (Table 29) of 26.5 μg Dry Matter/mL. Moreover, the “IC50 (superoxide scavenging activity)” value in data set [1] (Tables 35 and 36) is 26.5 µg/mL (≈ 73.5 µM).

With “EGF: Epidermal Growth Factor (EGF) used as a positive control”, the “NRU50 of positive control” value in the data set on 3T3 fibroblasts is recorded as > 2,500 μg/ml. Further, the “Cell Morphology” value is “NCM” in the data set with 3T3 fibroblasts (Table 27) and “NCM” in the data set with 3T3 fibroblasts (Table 28, marigold flower products). In addition, the NRU50 in the data set on 3T3 fibroblasts (Tables 27 and 28) is recorded as >2,500 μg Dry Matter/mL.

The values are drawn from patent publication US8101212B2, “Bioactive botanical cosmetic compositions and processes for their production” (Akzo Nobel Surface Chemistry LLC, priority 2002, dated 2012).
